Results as given in paper PMC10057977, “Use of In Vivo Imaging and Physiologically-Based Kinetic Modelling to Predict Hepatic Transporter Mediated Drug–Drug Interactions in Rats” (Pharmaceutics, 2023).
Where two headings read alike, the source gives them in different places.

What was measured:
rMrp2 = rMrp2 (Rattus norvegicus, UniProt Q63120); type: in vivo; parameters: from tissue; host or cells: liver of living male Wistar rats (Charles River Laboratories); details: ketoconazole 3 mg/kg iv
From the text: The tracer-kinetic model was developed to enable estimation of rate constants of hepatobiliary efflux from DCE-MRI profiles in individual animals. In this approach, the liver was assumed to consist of two compartments, the extracellular space (e) and the hepatocytes (h). Since water exchanges rapidly between those spaces, the change in relaxation rate was a weighted average (Equation (4)). (4) ΔR1(t)=r1,e·ve·ce(t)+r1,h·vh·ch(t)
The proportionality constant, r1,τ [L⋅mmol^−1⋅s^−1] , is the relaxivity of the contrast agent for the compartment τ (extracellular space, e or hepatocytes, h) at the respective field strength, while vτ [mL/mL tissue] is the volume fraction of the compartment τ . Previously measured ex vivo r1,tau values for gadoxetate were used in this work, as per. The underlying assumptions of the PBPK and tracer-kinetic models, relating to physiological volumes and perfusion, are consistent, despite different parameterizations according to the purpose of each model. For example, Vliv,extr in the PBPK model is defined as an absolute volume (units = L; sum of liver plasma and interstitial volumes), while in the tracer-kinetic model, ve is a volume fraction (dimensionless), defined as Vliv,extr/Vliver , where Vliver is the total liver volume. While some analogy can be drawn between CLactive […], and CLbiliary and kbh, the interpretations are distinct. For example, the operating concentrations of the PBPK parameters CLactive […], and CLbiliary are the unbound concentrations of gadoxetate in plasma and hepatocytes, while the tracer-kinetic model is parameterized with respect to the total concentration of gadoxetate.
Since ce(t) is the input to the hepatocytes, and no backflux from hepatocytes to extracellular space is assumed, Equation (5) can be derived. (5) vh·ch(t)=e^−t/Th∗khe·ce(t) where Th is the mean transit time of gadoxetate in the hepatocytes [min] , and * is convolution. The extracellular space is assumed to be in equilibrium with the blood pool and therefore the concentration ce(t) is proportional to the concentration cp(t) in the plasma of the feeding artery, i.e., ce(t) = (1 − E)·cp(t), where E is the extraction fraction of gadoxetate in the liver. Combining this assumption with Equations (4) and (5), and using (1 − E)·khe = E·Fp, with Fp being the apparent plasma flow into the liver [mL/min/mL tissue volume] , gives Equation (6), the operational equation for gadoxetate DCE-MRI in the liver. (6) ΔR1(t)=(1−E)·ve·r1,p·cp(t)+E·Fp·r1,h ·e^−t/Th ∗cp(t)
The rate constants were derived as K^trans = E·Fp, khe = E·Fp/(1 − E), and kbh = vh/Th, with a literature value for vh. The plasma concentrations cp(t) were not reliably measured in small animals due to the small diameter of the main vessels compared to the resolution of the measurement. […] Therefore, the source term cp(t) was derived from a two-compartment pharmacokinetic model for gadoxetate (see Supplementary Material, Section S5), and a step function as input in the blood compartment. The parameters kbh and khe were fitted to the liver data using a model implementation in Python. For each rat considered in these studies, the rate constants K^trans, khe, and kbh were calculated, in both control and inhibitory phases. The rate constants of the control and inhibitory phases were compared via calculation of simple (unstandardized) effect sizes (i.e., simple effect size = μcontrol − μtreatment, where μ is the mean average of all subjects) at the 95% confidence level. Statistical significance was assessed through a two-sided paired t-test, with p < 0.05 considered significant.

OATP1B1 = tested on: OATP1B1; parameters: method as in earlier work; details: in vitro, bracket not explained in the table, ref 30,43-55 and in-house data from Merck & Co., cited from earlier work
OATP1B3 = tested on: OATP1B3; parameters: method as in earlier work; details: in vitro; ref 30,43-55 and in-house data from Merck & Co.; cited from earlier work
[1] = cited from earlier work
NTCP = tested on: NTCP; parameters: method as in earlier work; details: in vitro; ref 30,43-55 and in-house data from Merck & Co.; cited from earlier work
[2] = Drug plasma concentrations in humans at therapeutic dosing; type: in vivo; details: ketoconazole plasma exposure, human
[3] = parameters: method as in supplement [28]; details: rat; 30 min after 3 mg/kg ketoconazole IV; ref supplement [28]; cited from earlier work
MRP2 = details: in vitro; bracket not explained in the table; ref 30,43-55 and in-house data from Merck & Co.; cited from earlier work

Chain of rMrp2 (Q63120 whole entry): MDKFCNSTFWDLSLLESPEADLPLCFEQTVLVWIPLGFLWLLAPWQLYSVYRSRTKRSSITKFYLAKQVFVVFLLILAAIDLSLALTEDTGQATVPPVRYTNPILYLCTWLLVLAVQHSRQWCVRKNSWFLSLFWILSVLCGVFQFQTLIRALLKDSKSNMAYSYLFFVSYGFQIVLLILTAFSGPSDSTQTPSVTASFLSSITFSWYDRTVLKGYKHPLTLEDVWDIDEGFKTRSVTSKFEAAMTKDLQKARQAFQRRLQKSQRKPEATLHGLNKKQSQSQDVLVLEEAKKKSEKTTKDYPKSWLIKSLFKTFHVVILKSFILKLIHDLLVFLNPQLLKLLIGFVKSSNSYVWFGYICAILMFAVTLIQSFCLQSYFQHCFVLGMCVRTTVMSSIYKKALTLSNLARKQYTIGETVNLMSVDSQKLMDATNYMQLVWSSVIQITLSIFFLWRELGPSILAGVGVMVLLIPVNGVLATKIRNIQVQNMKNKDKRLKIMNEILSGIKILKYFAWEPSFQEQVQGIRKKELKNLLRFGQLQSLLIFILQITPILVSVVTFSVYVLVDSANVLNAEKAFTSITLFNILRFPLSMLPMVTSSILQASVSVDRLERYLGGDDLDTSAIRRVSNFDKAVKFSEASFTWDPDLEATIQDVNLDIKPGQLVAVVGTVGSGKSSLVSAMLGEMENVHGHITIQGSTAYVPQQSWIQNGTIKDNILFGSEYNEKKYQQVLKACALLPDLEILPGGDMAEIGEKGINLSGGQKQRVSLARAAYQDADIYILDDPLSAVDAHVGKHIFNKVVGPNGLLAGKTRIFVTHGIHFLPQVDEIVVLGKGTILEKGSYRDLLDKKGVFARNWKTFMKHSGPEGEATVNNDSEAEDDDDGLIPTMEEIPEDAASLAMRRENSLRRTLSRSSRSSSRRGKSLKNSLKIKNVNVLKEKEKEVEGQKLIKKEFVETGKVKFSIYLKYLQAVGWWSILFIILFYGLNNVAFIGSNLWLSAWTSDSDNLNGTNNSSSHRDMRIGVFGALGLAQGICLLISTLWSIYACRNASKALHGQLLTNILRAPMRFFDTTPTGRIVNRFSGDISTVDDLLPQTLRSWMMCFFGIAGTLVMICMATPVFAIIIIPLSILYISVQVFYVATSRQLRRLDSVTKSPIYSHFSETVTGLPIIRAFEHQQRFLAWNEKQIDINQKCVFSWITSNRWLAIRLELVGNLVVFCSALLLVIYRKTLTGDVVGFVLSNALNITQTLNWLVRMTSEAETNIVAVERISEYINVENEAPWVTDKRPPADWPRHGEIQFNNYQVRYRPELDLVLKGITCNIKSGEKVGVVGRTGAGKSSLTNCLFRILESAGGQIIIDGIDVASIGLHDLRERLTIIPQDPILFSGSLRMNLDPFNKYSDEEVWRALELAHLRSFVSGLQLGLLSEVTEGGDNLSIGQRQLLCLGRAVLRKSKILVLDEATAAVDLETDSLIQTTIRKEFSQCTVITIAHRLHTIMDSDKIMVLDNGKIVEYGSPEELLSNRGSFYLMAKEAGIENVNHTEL

CC(=O)N1CCN(c2ccc(OCC3COC(Cn4ccnc4)(c4ccc(Cl)cc4Cl)O3)cc2)CC1 (stereo not shown) [Ketoconazole]
Simple Effect Size (95% CI) kbh (rMrp2; gadoxetate biliary efflux, control − treatment, positive = decrease, site D): 0.02 (−0.02, 0.06) mL/min/mL liver | change in gadoxetate kbh vs control (rMrp2; rat, p = 0.39): no significant changes | IC50 (OATP1B1): 15.4 µM | Ki (OATP1B1): 50.7 µM | IC50 (OATP1B1; listed as ketoconazole): > 2 µM | IC50 (OATP1B3): 3.9 µM | Cmax ([1]; human plasma, daily dose 200 mg (ketoconazole), read-out: Cmax (µM) [Daily Dose]): 6.6 µM | clinical Ctrough ([1]; human, ref supplement [29]): 0.2 µM | Cmax ([1]; human, ref supplement [29], read-out: clinical Cmax): 7 µM | IC50 (NTCP): 202 µM | unbound Cmax [2]: ~ 0.07 µM | plasma concentration [3]: 4 µM | IC50 (MRP2): > 20 µM
